Counter-ions that a name gives are not always drawn. Values belong to the compound of their own block, whether it stands above or below them.
Legend:
H3 receptor = H3 receptor (Homo sapiens, UniProt Q9Y5N1); assay: PDSP off-target profiling, H3 receptor
[1] = system: panel of 45 pharmacologically relevant CNS targets and receptors; settings: for PDSP binding summary: insignificant: 10 µM
rat nNOS (rnNOS) = target: T1, rat nNOS (rnNOS) (Rattus norvegicus, UniProt P29476); assay: Hemoglobin capture assay, purified rat nNOS; format: biochemical
T1 construct: made in house; host or cells: E. coli

human eNOS (heNOS) = target: T2, human eNOS (heNOS) (Homo sapiens, UniProt P29474); assay: Hemoglobin capture assay, purified human eNOS; format: biochemical
T2 construct: made in house; host or cells: E. coli

H2 receptor = H2 receptor (Homo sapiens, UniProt P25021); assay: PDSP off-target profiling, H2 receptor; format: binding
human iNOS (hiNOS) = human iNOS (hiNOS) (Homo sapiens, UniProt P35228); settings: read-out: Ki hiNOS; Ki calculated from IC50 (Cheng-Prusoff)
[2] = target: rat nNOS D597N single mutant (Rattus norvegicus, UniProt P29476, D597N)
[3] = target: rat nNOS M336V/D597N double mutant (Rattus norvegicus, UniProt P29476, D597N/M336V); settings: versus the single mutant
[4] = PAMPA

H2 receptor, sequence (P25021 whole entry): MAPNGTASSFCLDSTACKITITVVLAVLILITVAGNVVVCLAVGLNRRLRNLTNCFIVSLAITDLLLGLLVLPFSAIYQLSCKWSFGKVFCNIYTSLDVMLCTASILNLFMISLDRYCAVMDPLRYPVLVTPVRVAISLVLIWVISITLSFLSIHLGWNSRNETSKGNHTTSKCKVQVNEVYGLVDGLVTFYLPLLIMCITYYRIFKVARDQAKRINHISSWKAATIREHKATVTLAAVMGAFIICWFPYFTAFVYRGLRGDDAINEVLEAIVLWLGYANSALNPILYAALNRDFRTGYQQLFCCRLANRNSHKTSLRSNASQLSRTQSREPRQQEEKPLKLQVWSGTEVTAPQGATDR
H3 receptor, sequence (Q9Y5N1 whole entry): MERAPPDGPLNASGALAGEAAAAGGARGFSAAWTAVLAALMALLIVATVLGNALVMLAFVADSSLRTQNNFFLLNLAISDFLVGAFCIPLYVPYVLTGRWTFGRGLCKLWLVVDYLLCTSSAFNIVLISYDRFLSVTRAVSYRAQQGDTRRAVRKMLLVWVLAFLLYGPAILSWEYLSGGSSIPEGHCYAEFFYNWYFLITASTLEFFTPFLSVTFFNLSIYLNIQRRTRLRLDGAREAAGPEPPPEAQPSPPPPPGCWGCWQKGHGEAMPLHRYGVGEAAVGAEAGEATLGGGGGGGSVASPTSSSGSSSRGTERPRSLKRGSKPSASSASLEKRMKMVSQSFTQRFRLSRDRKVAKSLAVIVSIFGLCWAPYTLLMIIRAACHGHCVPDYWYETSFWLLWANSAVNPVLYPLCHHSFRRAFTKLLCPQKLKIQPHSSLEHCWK

fraction of concerning or moderate hits [1]: 11/45
PDSP binding summary: insignificant [1]: 12
Compound: Cc1cc(N)nc2cc(-c3ccc(OCc4ccccn4)c(CN)c3)ccc12.Cl.Cl.Cl [Compound 32, 7-(3-(Aminomethyl)-4-(pyridin-2-ylmethoxy)phenyl)-4-methylquinolin-2-amine Trihydrochloride]

increased potency against the double mutant [3]: 5 fold
Compound: Cc1cc(N)nc2cc(-c3ccc(OCc4cocn4)c(CN)c3)ccc12 [Compound 36, 7-(3-(Aminomethy)-4-(oxazol-4-ylmethoxy)phenyl)-4-methylquinolin-2-amine Trihydrochloride]

prediction (CNS) [4]: CNS (−)
Compound: NCCc1ccc(O)c(O)c1 [dopamine]

improvement in binding affinity toward heNOS (human eNOS (heNOS); 33 versus 32): 3 fold
fraction of concerning or moderate hits [1]: 8/45
PDSP binding summary: insignificant [1]: 20
Compound: Cc1cc(N)nc2cc(-c3ccc(OCc4cccnc4)c(CN)c3)ccc12.Cl.Cl.Cl [Compound 33, 7-(3-(Aminomethyl)-4-(pyridin-3-ylmethoxy)phenyl)-4-methylquinolin-2-amine Trihydrochloride]

The next lines start with the compound.

Compound: Cc1cc(N)nc2cc(-c3ccc(OCC4CC4)c(CN)c3)ccc12.Cl.Cl [Compound 29, 7-(3-(Aminomethyl)-4-(cyclopropylmethoxy)phenyl)-4-methylquinolin-2-amine Dihydrochloride]
off-target binding classification, H3 receptor (H3 receptor): concerning (concerning (Ki<100 nM, or <˜2× nNOS Ki value))

Compound: Cc1cc(N)nc2cc(-c3ccc(CN)cc3)ccc12.Cl.Cl [Compound 7, 7-(4-(Aminomethyl)phenyl)-4-methylquinolin-2-amine Dihydrochloride]
increase in rnNOS activity (rat nNOS (rnNOS); relative to 5): 2.3 fold

Compound: 7-(3-(2-Aminoethyl)phenyl)-4-methylquinolin-2-amine Dihydrochloride [Compound 12]
Ki (human eNOS (heNOS); Ki calculated from IC50): 52.6 µM
ΔGbind WT heNOS (human eNOS (heNOS); obtained from Ki values): -4.5 kcal/mol
off-target binding classification, H2 receptor (H2 receptor): concerning (concerning (Ki<100 nM, or <˜2× nNOS Ki value))
Ki (human iNOS (hiNOS)): 29.9 µM
ΔGbind hnNOS D597N mutant ([2]; obtained from Ki values): -7.3 kcal/mol
decrease in potency, D597N mutant ([2]; versus wild type): 8 fold
% remaining at 60 min (—NADPH) (HLM without NADPH, 60 min): 87%
% remaining at 60 min (buffer) (buffer control, 60 min): 67%
t1/2 (half-life in HLM, Dihydrochloride): >1 h
CLint (in vitro intrinsic clearance, HLM): 8 mL/min/kg

Compound: Cc1cc(N)nc2cc(-c3ccc4c(c3)C(N)CC4)ccc12.Cl.Cl (racemic) [Compound 18, 7-(3-Amino-2,3-dihydro-1H-inden-5-yl)-4-methylquinolin-2-amine Dihydrochloride]
loss in rnNOS potency relative to comparator (rat nNOS (rnNOS); 6 vs 5, 15 and 18 vs 12, 17 vs 7): approximately 3 fold
Ki (rat nNOS (rnNOS); wild-type rat nNOS, Ki calculated from IC50): 0.18 µM
